Measurements from patent US4767749A, “Ester of (triarylphosphoranylidene)carbamic acid having diuretic and ability to lower plasma renin properties” (American Cyanamid Company, priority 1986, dated 1988).
Structures can show the parent of a compound that is named as a salt.

System: spontaneously hypertensive rats (SHR)
Assay: Diuretic activity in spontaneously hypertensive rats
Type: in vivo, male spontaneously hypertensive rats (Okamoto strain)
Conditions: 100 mg/kg by gavage with 0.9% sodium chloride loading 25 ml/kg; 0-5 hour urine
Description: The diuretic activity of the compounds of this invention was also determined according to the method of Chan, P. S. and Poorvin, D., Sequential method for combined screening antihypertensive and diuretic agents in the same spontaneously hypertensive rat. Clinical and Experimental Hypertension, 1(6), 817-830 (1979).
Male spontaneously hypertensive rats (SHR) of Okamoto strain, 16 weeks old, Taconic Farms Inc. were used in the test. These rats were kept on Purina laboratory chow and tap water ad libitum for 8 weeks before use. One male adult rat (about 300 g) was dosed by gavage with a test compound at 100 mg/kg together with 0.9% sodium chloride loading at 25 ml/kg at zero hour. The test compound was suspended in 3% preboiled starch at 50 mg/ml. The rat was put in a metabolism cage. The 0-5 hour urine was collected and urinary sodium and potassium were determined using a Beckman Astra 4. The effects of representative compounds of the invention according to this test appear in Table III expressed in milliequivalents (mEQ) of urinary sodium and potassium excreted.

Row | Structure (SMILES) | Potassium (urinary excretion) | Sodium (urinary excretion) | Volume (urine)
1 | CCOC(=O)N=P(c1ccccc1)(c1ccccc1)c1c(C)cccc1C [[[(2,6-dimethylphenyl)diphenyl]phosphoranylidene]carbamic acid, ethyl ester] | 0.86 mEQ/5 Hours | 1.48 mEQ/5 Hours | 13.0 mL
2 | CO[C@@H]1CCCC[C@H]1OC(=O)N=P(c1ccccc1)(c1ccccc1)c1ccccc1 (relative stereo) [(triphenylphosphoranylidene)carbamic acid, trans-2-methoxycyclohexyl ester] | 0.67 mEQ/5 Hours | 1.45 mEQ/5 Hours | 12.8 mL
3 | Cc1ccccc1P(=N)(c1ccccc1)c1ccccc1C [[Bis(2-methylphenyl)phenyl]phosphinimide sulfate] | 0.88 mEQ/5 Hours | 1.44 mEQ/5 Hours | 13.0 mL
4 | CCOC(=O)N=P(c1ccccc1)(c1ccccc1)c1cccc(Cl)c1 [[(3-chlorophenyl)diphenylphosphoranylidene]carbamic acid, ethyl ester] | 0.64 mEQ/5 Hours | 2.32 mEQ/5 Hours | 23.8 mL
5 | Cc1ccccc1P(=N)(c1ccccc1)c1ccccc1 [(2-Methylphenyl)diphenylphosphinimide sulfate] | 0.68 mEQ/5 Hours | 1.88 mEQ/5 Hours | 16.3 mL
6 | Cc1ccccc1P(=NC(=O)OC1CCCC1)(c1ccccc1)c1ccccc1 [[(2-methylphenyl)diphenylphosphoranylidene]carbamic acid, cyclopentyl ester] | 0.67 mEQ/5 Hours | 1.18 mEQ/5 Hours | 10.8 mL
7 | CCOC(=O)N=P(c1ccccc1)(c1ccccc1)c1ccccc1OC [[(2-Methoxyphenyl)diphenylphosphoranylidene]carbamic acid, ethyl ester] | 0.97 mEQ/5 Hours | 1.31 mEQ/5 Hours | 11.3 mL
8 | CC1CC1COC(=O)N=P(c1ccccc1)(c1ccccc1)c1ccccc1 (stereo not drawn) [(triphenylphosphoranylidene)carbamic acid, (2-methylcyclopropyl)methyl ester] | 0.47 mEQ/5 Hours | 1.28 mEQ/5 Hours | 11.3 mL
9 | CC(OC(=O)N=P(c1ccccc1)(c1ccccc1)c1ccccc1)C1CC1 (stereo not drawn) [(triphenylphosphoranylidene)carbamic acid, 1-cyclopropylethyl ester] | 0.65 mEQ/5 Hours | 1.19 mEQ/5 Hours | 12.0 mL
10 | O=C(N=P(c1ccccc1)(c1ccccc1)c1ccccc1)OC(C1CC1)C1CC1 [(triphenylphosphoranylidene)carbamic acid, dicyclopropylmethyl ester] | 1.07 mEQ/5 Hours | 1.58 mEQ/5 Hours | 14.3 mL
11 | CCOC(=O)N=P(c1ccccc1)(c1ccccc1)c1ccccc1F [[Diphenyl(2-fluorophenyl)phosphoranylidene]carbamic acid, ethyl ester] | 0.66 mEQ/5 Hours | 2.01 mEQ/5 Hours | 19.8 mL
12 | CCOC(=O)N=P(c1ccccc1)(c1ccccc1)c1cccc(C(F)(F)F)c1 [[(3-trifluorophenyl)diphenylphosphoranylidene]carbamic acid, ethyl ester] | 0.67 mEQ/5 Hours | 1.38 mEQ/5 Hours | 13.5 mL
13 | N=P(c1ccccc1)(c1ccccc1)c1ccccc1 [Triphenylphosphinimide sulfate] | 0.65 mEQ/5 Hours | 1.25 mEQ/5 Hours | 12.0 mL
14 | CCOC(=O)N=P(c1ccccc1)(c1ccccc1)c1ccccc1CC [[(2-ethylphenyl)diphenylphosphoranylidene]carbamic acid, ethyl ester] | 0.78 mEQ/5 Hours | 2.07 mEQ/5 Hours | 19.0 mL
15 | O=C(N=P(c1ccccc1)(c1ccccc1)c1ccccc1Cl)OC1CCOC1 (stereo not drawn) [[(2-chlorophenyl)diphenylphosphoranylidene]carbamic acid, tetrahydro-3-furanyl ester] | 0.68 mEQ/5 Hours | 1.90 mEQ/5 Hours | 20.0 mL
16 | CCOC(=O)N=P(c1ccccc1)(c1cccc(Cl)c1)c1cccc(Cl)c1 [[[bis(3-chlorophenyl)phenyl]phosphoranylidene]carbamic acid, ethyl ester] | 0.89 mEQ/5 Hours | 1.84 mEQ/5 Hours | 18.3 mL
17 | CCOC(=O)N=P(c1ccccc1)(c1ccccc1)c1cccc(Cl)c1Cl [[(2,3-dichlorophenyl)diphenylphosphoranylidene]carbamic acid ethyl ester] | 0.86 mEQ/5 Hours | 1.83 mEQ/5 Hours | 14.3 mL
18 | COC(=O)N=P(c1ccccc1)(c1ccccc1)c1ccccc1C [[(2-methylphenyl)diphenylphosphoranylidene]carbamic acid, methyl ester] | 0.88 mEQ/5 Hours | 1.95 mEQ/5 Hours | 18.3 mL
19 | O=C(N=P(c1ccccc1)(c1ccccc1)c1ccccc1)OC1C=CCC1 (stereo not drawn) [(triphenylphosphoranylidene)carbamic acid, 2-cyclopenten-1-yl ester] | 0.83 mEQ/5 Hours | 1.58 mEQ/5 Hours | 15.5 mL
20 | CCOC(=O)N=P(c1ccccc1)(c1ccccc1)c1ccccc1C(C)C [[[2-(1-Methylethyl)phenyl]diphenylphosphoranylidene]carbamic acid, ethyl ester] | 0.83 mEQ/5 Hours | 2.08 mEQ/5 Hours | 18.8 mL
21 | CCOC(=O)N=P(c1ccccc1)(c1ccccc1)c1cccc(Br)c1 [[(3-Bromophenyl)diphenylphosphoranylidene]carbamic acid, ethyl ester] | 0.78 mEQ/5 Hours | 1.16 mEQ/5 Hours | 12.4 mL
22 | O=C(N=P(c1ccccc1)(c1ccccc1)c1ccccc1)OCc1ccncc1 [(triphenylphosphoranylidene)carbamic acid, 4-pyridinylmethyl ester] | 0.70 mEQ/5 Hours | 1.50 mEQ/5 Hours | 16.5 mL
23 | COC1CCCCC1OC(=O)N=P(c1ccccc1)(c1ccccc1)c1ccccc1 (stereo not drawn) [(triphenylphosphoranylidene)carbamic acid, cis- and trans-2-methoxycyclohexyl ester] | 0.59 mEQ/5 Hours | 1.15 mEQ/5 Hours | 11.3 mL
24 | CCOC(=O)N=P(c1ccccc1)(c1ccccc1)c1ccccc1Br [[(2-bromophenyl)diphenylphosphoranylidene]carbamic acid, ethyl ester] | 0.68 mEQ/5 Hours | 2.51 mEQ/5 Hours | 22.5 mL
25 | COC(=O)N=P(c1ccccc1)(c1ccccc1)c1cccc(Cl)c1 [[(3-chlorophenyl)diphenylphosphoranylidene]carbamic acid, methyl ester] | 0.60 mEQ/5 Hours | 2.45 mEQ/5 Hours | 23.0 mL
26 | O=C(N=P(c1ccccc1)(c1ccccc1)c1ccccc1)OCC1CCC1 [(Triphenylphosphoranylidene)carbamic acid, cyclobutylmethyl ester] | 0.60 mEQ/5 Hours | 1.47 mEQ/5 Hours | 14.5 mL
27 | CCOC(=O)N=P(c1ccccc1)(c1ccccc1Cl)c1ccccc1Cl [[bis(2-chlorophenyl)phenylphosphoranylidene]carbamic acid, ethyl ester] | 0.38 mEQ/5 Hours | 2.40 mEQ/5 Hours | 22.3 mL
28 | CCc1ccccc1P(=NC(=O)OC)(c1ccccc1)c1ccccc1 [[(2-ethylphenyl)diphenylphosphoranylidene]carbamic acid, methyl ester] | 0.58 mEQ/5 Hours | 1.36 mEQ/5 Hours | 14.3 mL
